# Reference: patent US10858357B2, “Water-soluble myosin 2 inhibitors for the treatment of neurological, neuropathic or psychiatric diseases” (PARIS SCIENCES ET LETTRES-QUARTIER LATIN, priority 2016, dated 2020)
# Where two headings read alike, the source gives them in different places.
# How the values were obtained:
# HeLa cells = test: HeLa wound healing (motility) assay; type: cell-based, human; conditions: 20 μM, after 24 h, uncoated glass; control 30.6±5.4%
# Protocol: For wound healing assays, 200 μl of HeLa cells were plated on 35 mm borosilicate glass imaging dishes at 300,000 cells/ml concentrations and incubated for 24 hours. Prior to wounding, cells were incubated in 20 μM of neurelaxin-A for an hour. After one hour, scratches were made with pipette tips in monolayer cultures and the motility of cells for occupying the wound was monitored for 24 hours with a Foculus Digital Camera (IEEE1394). Analysis of cell motility was carried out by ImageJ, by measuring the distance between two lines fitted on the two sides of the approaching cell edges created by the pipette tips.
# To test the effect of neurelaxin-A on the motility of HeLa cells on uncoated glass surface, wound-healing assays were carried out in the absence and in the presence of 20 μM concentrations of the inhibitor.
# After 24 h, the percent of migration was measured for each sample. The control corresponds to a sample in the absence of inhibitor.
# zebrafish embryos = test: Zebrafish embryo toxicity test; type: in vivo, zebrafish (Danio rerio)
# Protocol: Transgenic Tg(−8.0cldnb:lynEGFP)^zf106 (cldnb:gfp) (Haas, P. & Gilmour, D., Developmental Cell 10, 2006, pp 673-680) zebrafish (Danio rerio) were maintained in the animal facility of Eötvös Loránd University. For the experiments investigating the skeletal and heart muscle of zebrafish, 6 dpf embryos were used. For cytotoxicity assays, 2 dpf embryos were dechorionated and placed in E3 medium (5 mM NaCl, 0.33 mM MgCl2, 0.33 mM CaCl2 and 0.17 mM KCl) complemented with the inhibitor in the indicated concentrations.578 PCT
# In order to test the cytoxicity of neurelaxin-A in a live animal model, zebrafish embryos were treated with the inhibitor at different concentrations and their development was followed for 72 hours (FIG. 4d).
# [1] = system: embryonic mouse hippocampal cells; test: Neurite growth in embryonic hippocampal cell culture; type: cell-based; conditions: 50 μM
# Protocol: Embryonic mouse hippocampal cells were isolated from 17-day-old embryo and cultured on poly-D-lysine coated dish in neurobasal medium complemented with B27, FCS and glutamax for 20 hours.
# The growth of neurites was monitored by phase contrast microscopy after the addition of 50 μM neurelaxin-A (Imaging buffer: Extracell isotonic salt solution, buffered with 5 mM HEPES).
# [2] = system: embryonic rat hippocampal neurons; test: Cannabinoid (WIN55,212-2)-induced growth cone retraction; type: cell-based; conditions: 100 μM pre-treatment, WIN55,212-2 100 nM
# Protocol: Embryonic rat hippocampal neurons were isolated from 18-day-old embryo and cultured on poly-D-lysine coated dish in Neurobasal medium complemented with B27, FBS and glutamax for 6 days and transfected by using Lipofectamine 2000 with DNA codig for LifeAct-mCherry and CB1R-CFP.
# The growth of neurites were monitored by fluorescent miscroscopy after the addition of different pre-treatment doses of neurelaxin-A at 20 minutes, followed 20 minutes later by the addition of 100 nM of the synthetic cannabinoid WIN55,212-2 as described in Roland et al, 2014.
# neurons = test: Oxidative stress resistance (H2O2) of neurons; type: cell-based; conditions: 30 μM H2O2
# Protocol: Hydrogen Peroxide (H2O2) is used for generating reactive oxygen species and consequently, leading to oxidative stress and neuronal loss.
# In this experiment, the neurons were first incubated with 30 μM of H2O2 or not (witness sample). Then, the neurons were treated with DMSO solutions with or without Neurelaxin-A.
# [3] = Water solubility and solution stability in assay buffer; type: physicochemical; conditions: for solution stability at saturation concentration: 0.1 or 1 vol/vol % DMSO in assay buffer; for solubility: pH 7.3, aqueous buffer, kinetic from dmso stock, read-out: saturation concentration (solubility)
# Protocol: The solubility and the solution stability of neurelaxin-A, were measured in 0.1 and 1 vol/vol % DMSO at room temperature.
# 500 μM inhibitor solutions were prepared in assay buffer (40 mM NaCl, 4 mM MgCl2, 20 mM HEPES pH 7.3) containing 0.1 or 1 vol/vol % DMSO.
# After 0, 5, 25, 60 and 240 minutes, the samples were centrifuged for 1 minute. Absorption spectra of the supernatants were recorded and the concentrations of the dissolved inhibitors were determined using the extinction coefficient ε^o427=6860 M^−1cm^−1 (FIG. 2A).
# [4] = Fluorescence emission spectrum; type: physicochemical; conditions: 5 μM, λexc=350 nm, assay buffer 0.1% DMSO
# Protocol: (§1) Fluorescence emission spectra (λexc=350 nm) were recorded in assay buffer containing 0.1% DMSO applying the inhibitors at 5 μM concentrations. The photoconversion measurements were carried out using 5 μM neurelaxin-A in assay buffer and irradiating the samples at 480±10 nm for 0, 5, 10 and 15 minutes using a Fluorescence Spectrometer (F900, Edinburgh Instruments) equipped with a 450 W Xenon Lamp. Their absorbance spectra were measured at each time point.
# Fluorescence emission spectra (λexc.=350 nm) were recorded in assay buffer containing 0.1% DMSO comprising the inhibitor at 5 μM concentration.
# [5] = Photostability under 480±10 nm irradiation; type: physicochemical; conditions: 5 μM, 480±10 nm for 0, 5, 10 and 15 minutes
# Protocol: as §1
# Neurelaxin-A's photostability was measured by irradiating the compound in assay buffer at 480±10 nm for 0, 5, 10 and 15 minutes and recorded the absorption spectra afterwards (FIG. 2C).
compound,measurement,setting,value
"Cc1ccc2c(c1)C(=O)C1(O)CCN(c3ccc(N)cc3)C1=N2 (stereo not shown) [Neurelaxin-A, 1-(4-aminophenyl)-3a-hydroxy-6-methyl-3,3a-dihydro-1H-pyrrolo[2,3-b]quinolin-4(2H)-one]",relative migration of HeLa cells (100% = total diameter of the wound),HeLa cells,62.6±3.6%
same,visible damage in zebrafish embryos,zebrafish embryos; 72 hours,does not cause any visible damage
same,signs of cytotoxicity in zebrafish embryos,"zebrafish embryos; after 40 hours, even at high concentrations",did not show any signs of cytotoxicity
same,rate of neurite growth,[1],1 μm/min
same,rate of neurite growth,[1]; listed as neurelaxin-A,approximately 1 μm/min
same,cannabinoid-induced retraction of axonal growth cones,[2],significantly prevented
same,neuronal survival and axon maintenance under oxidative stress,neurons,increased
same,solution stability at saturation concentration,[3],remained constant for 4 hours
same,solution stability at saturation concentration,[3]; listed as neurelaxin-A,stable for several days
same,solubility,"[3]; assay buffer with 0.1 vol/vol % DMSO, 0.1 vol/vol % DMSO in assay buffer pH 7.3, room temperature",~298 µM
same,solubility,"[3]; assay buffer with 1 vol/vol % DMSO, 1 vol/vol % DMSO in assay buffer pH 7.3, room temperature",~426 µM
same,fluorescence signal,[4],no fluorescence signal
same,photostability: absorption spectrum after irradiation,[5],has not been altered
